According to patent publication US11692167B2, “Chemically defined serum replacements for cell culture” (Montana State University, priority 2021, dated 2023):

How the values were obtained:
HFF cells = experiment: Design of Experiments two-factor interaction on HFF cells (cell numbers/mL); type: cell-based, human; conditions: culture for 5 days
Excerpt: Optimization of mixes is achieved using Design of Experiments (DoE) computer-based design and analysis protocols. Experiments are computer designed according to number of variables to test, and serial dilutions of those variables. Results are able to indicate two factor interactions. […] This enables the optimization of many interdependent nutrients using maxima and repeat application. […] Vertical axes reflect cell numbers/mL after culture for 5 days. Horizontal axes correspond to increasing concentration of indicated lipids.

[1] = spectrophotometric assay using phenolphthalein indicator to determine complexation efficiency of lipids with cyclodextrins; type: physicochemical; conditions: extrapolated from free phenolphthalein absorbance
Method: Solubilized lipids were evaluated by spectrophotometric assay using Phenolphthalein, which is known to occupy the complexing reagents used for five hydrophobic nutrients used in chemically defined mixes. Phenolphthalein is known to be displaced from the reagent when a hydrophobic moiety is complexed, so the concentration of occupied reagents was extrapolated from coloration indicating concentration of free phenolphthalein in solution when a known amount of solubilized nutrient was dosed with a known quantity of Phenolphthalein. […] Phenolphthalein is colored when free in solution at pH 8+. It readily complexes with cyclodextrins of all types and is colorless when complexed. It is preferentially displaced by more hydrophobic molecules, so when added to a known concentration of complexed lipids, the absorbance can determine how much free phenolphthalein is present, and therefore how many free cyclodextrins are present. Since the stoichiometry of mixing is 1:1, the concentration of cyclodextrins that are free to interact with Phenolphthalein logically equals the concentration of free lipid in solution.

Row | Compound | two-factor interaction with PT (palmitate) on cell numbers/mL (HFF cells; FIG. 8A) | two-factor interaction with α linolenic acid (ALA) on cell numbers/mL (HFF cells; FIG. 8B) | free lipid concentration in solution relative to critical micelle concentration (literature level) [1]
1 | CCCCCC/C=C\CCCCCCCC(=O)O [PA, palmitoleic acid] | agonistic relationship | antagonist relationship | 
2 | CCCCCCCC/C=C\CCCCCCCC(=O)O [oleic acid] |  |  | greater than the literature level
